≈ marks a conversion by molar mass, not a printed value.
Columns and labels:
[1] = tested on: H37Rv Mtb; test: MIC against replicating H37Rv Mtb in GAS and 7H12 media; type: cell-based, Mycobacterium tuberculosis; settings: for MIC: Mycobacterium tuberculosis, H37RV, read-out: MIC mean +/- against replicating Mtb in medium: GAS (μg/mL), GAS medium, H37Rv, recalculated from μM
[2] = tested on: Mycobacterium kansasii; test: MIC against non-tubercular mycobacteria: M. kansasii; type: cell-based
[3] = tested on: Mycobacterium bovis BCG; test: MIC against non-tubercular mycobacteria: M. bovis BCG; type: cell-based; settings: Mycobacterium tuberculosis variant bovis BCG
[4] = tested on: Mycobacterium avium; test: MIC against non-tubercular mycobacteria: M. avium; type: cell-based

SMILES | MIC [1] [µg/mL] | also measured
Cc1ccn2c(C(=O)NCc3ccccc3)nnc2c1 [Compound 10, N-benzyl-7-methyl-[1,2,4]triazolo[4,3-a]pyridine-3-carboxamide] | 27 ± 1.6 (≈ 101 µM) | negative effect on potency relative to compound 2 ([1]; GAS medium, MIC of 0.1 and 101 μM): 1000 x
Cc1ccn2c(C)c(C(=O)NCc3ccccc3)nc2c1 [Compound 12, N-benzyl-3,7-dimethylimidazo[1,2-a]pyridine-2-carboxamide] | 19.6 ± 2.5 (≈ 70.2 µM) | –
Cc1cnc2nc(C)c(C(=O)NCc3ccccc3)n2c1 [Compound 6, N-benzyl-2,6-dimethylimidazo[1,2-a]pyrimidine-3-carboxamide] | 0.36 ± 0.06 (≈ 1.28 µM) | MIC [2]: 19 µM (≈ 5.33 µg/mL); MIC [3]: 8 µM (≈ 2.24 µg/mL)
Cc1ccc2nc(C)c(C(=O)NCc3ccccc3)n2n1 [Compound 7, N-benzyl-2,6-dimethylimidazo[1,2-b]pyridazine-3-carboxamide] | 17.9 ± 0.5 (≈ 63.9 µM) | –
Cc1ccc2c(C(=O)NCc3ccccc3)c(C)[nH]c2c1 [Compound 8, N-Benzyl-2,6-dimethyl-1H-indole-3-carboxamide] | 12.2 ± 0.3 (≈ 43.8 µM) | –
Cc1cc(C)n2nc(C(=O)NCc3ccccc3)nc2n1 [Compound 11, N-benzyl-5,7-dimethyl-[1,2,4]triazolo[1,5-a]pyrimidine-2-carboxamide] | 35.4 ± 0.8 (≈ 126 µM) | –
Cc1ccc2c(C(=O)NCc3ccccc3)n[nH]c2c1 [Compound 9, N-benzyl-6-methyl-1H-indazole-3-carboxamide] | 10.8 ± 0.9 (≈ 40.7 µM) | –
Cc1ccn2c(C(=O)NCc3ccccc3)c(C)nc2c1 [Compound 1, N-benzyl-2,7-dimethyl-imidazo[1,2-a]pyridine-3-carboxamide] | – | times more potent than 12 ([1]; MIC's of 0.2 and 70 μM): 350 times
Cc1ccc2nc(C)c(C(=O)NCc3ccccc3)n2c1 [Compound 2] | 0.031 ± 0.002 (≈ 0.111 µM) | MIC [4]: 16 µM (≈ 4.47 µg/mL); MIC [3]: 1 µM (≈ 0.279 µg/mL)

Source: paper PMC4096046 (Bioorganic & medicinal chemistry letters, 2014)
